Data set [1] addresses Beta-lactamase (Pseudomonas aeruginosa) (UniProt Q79MP6). In words: Inhibition of Pseudomonas aeruginosa beta-lactamase IMP-1 expressed in Escherichia coli BL21(DE3) at 10 uM using CENTA as chromogenic substrate.
The target is the same in data set [2]. The data set can be described thus: Competitive inhibition of Pseudomonas aeruginosa beta-lactamase IMP-1 assessed as formation of 4-nitrothiophenolate at pH 7 using CENTA as chromogenic substrate.
Data set [3] has the same target. The data set can be described thus: Uncompetitive inhibition of Pseudomonas aeruginosa beta-lactamase IMP-1 assessed as formation of 4-nitrothiophenolate at pH 7 using CENTA as chromogenic substrate.
Data set [4] shares this target. The data set can be described thus: Inhibition of Pseudomonas aeruginosa beta-lactamase IMP-1 expressed in Escherichia coli BL21(DE3) at 1000 uM using CENTA as chromogenic substrate.
Data set [5] has the same target. In words: Inhibition of Pseudomonas aeruginosa beta-lactamase IMP-1 expressed in Escherichia coli BL21(DE3) at 100 uM using CENTA as chromogenic substrate.
The nature of data set [6]: Solubility of the compound. It counts as physicochemical.

Data on 29 molecules can be found in ChEMBL document CHEMBL1932941, “3-mercapto-1,2,4-triazoles and N-acylated thiosemicarbazides as metallo-β-lactamase inhibitors” (Bioorg Med Chem Lett, 2012).

As a reminder, the inhibition is the relative decrease from the control value, in per cent.

Chain of Beta-lactamase (Pseudomonas aeruginosa) (Q79MP6 19-246 limits assumed): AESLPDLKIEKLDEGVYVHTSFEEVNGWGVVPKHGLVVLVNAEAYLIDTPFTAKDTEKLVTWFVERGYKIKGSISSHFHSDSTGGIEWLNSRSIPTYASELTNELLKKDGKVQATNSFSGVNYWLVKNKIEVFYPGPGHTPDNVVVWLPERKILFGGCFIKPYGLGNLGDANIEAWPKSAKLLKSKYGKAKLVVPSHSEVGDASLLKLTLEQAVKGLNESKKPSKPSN

`NC(=S)NNC(=O)c1ccccc1C(=O)O`: the inhibition in data set [1] came out at 0%.

Regarding `Cc1ccc(C(=O)c2ccc(C(=O)NNC(N)=S)cc2)cc1`, in data set [2], the Kic was 41 µM. Further, the inhibition in data set [1] came out at 38%. In addition, the Kiuc in data set [3] worked out at 20 µM. Molecule `Cn1c(S)nnc1C(F)(F)F` returned an inhibition in data set [4] of 51%. Take `NC(=S)NNC(=O)c1ccc(Cc2ccccc2)cc1`: the Kic in data set [2] is 18 µM. In data set [1], the inhibition is 26%. In addition, in data set [3], the Kiuc came to 37 µM. Regarding `CSc1nnc(C(C)(C)C)[nH]1`, the inhibition in data set [4] worked out at 10%.

As for `NC(=S)NNC(=O)CCCC(=O)O`, the inhibition in data set [1] is 8%.

Take `NC(=S)NNC(=O)c1cccc([N+](=O)[O-])c1`: in data set [1], the inhibition is 30%. Take `NC(=S)NNC(=O)c1ccc(C(=O)c2ccccc2Cl)cc1`: the Kic in data set [2] turned out to be 14 µM. The inhibition in data set [1] is 51%. The Kiuc in data set [3] amounted to 13 µM. Regarding `O=C(O)CCc1nnc(S)[nH]1`, the inhibition in data set [1] and in data set [5] was 10% in each case. As for `CCCCCCc1nnc(S)[nH]1`, in data set [6], the solubility entry was “Insoluble”.

In turn, `CC(C)(C)c1nnc(S)[nH]1` yielded an inhibition in data set [4] of 32%. `O=C(c1ccccc1)c1ccc(-c2nnc(S)[nH]2)cc1`: the Kic in data set [2] stood at 75 µM. The inhibition in data set [1] worked out at 10%; in data set [5], 44%. Besides, the Kiuc in data set [3] worked out at 56 µM. For `NC(=S)NNC(=O)c1ccc(C(=O)c2ccccc2)cc1`, in data set [2], the Kic was determined as 13 µM. This molecule also gave an inhibition in data set [1] of 34%. Moreover, the Kiuc in data set [3] worked out at 26 µM. In the case of `CCc1nnc(S)[nH]1`, in data set [4], the inhibition was 32%. In data set [4], `FC(F)(F)c1nnc(S)[nH]1` returned an inhibition of 45%.

Turning to `O=C(O)CCCc1nnc(S)[nH]1`, the inhibition in data set [1] is 0%; in data set [5], 5%. Regarding `O=C(O)c1ccccc1-c1nnc(S)[nH]1`, the inhibition in data set [1] came to 0%; in data set [5], 7%. For `O=[N+]([O-])c1cccc(-c2nnc(S)[nH]2)c1`, the solubility entry in data set [6] is recorded as “Insoluble”. In turn, `CC(C)(C)C(=O)NNC(N)=S` had an inhibition in data set [1] of 0%. `NC(=S)NNC(=O)c1ccc(C(=O)c2ccc([N+](=O)[O-])cc2)cc1`: in data set [2], the Kic is 11 µM. Moreover, the inhibition in data set [1] stood at 45%. In data set [3], the Kiuc was 20 µM. Turning to `CCCCCCSc1nnc(C(C)(C)C)[nH]1`, the solubility entry in data set [6] is recorded as “Insoluble”.

Take `Cc1nnc(S)[nH]1`: the inhibition in data set [4] is 33%. Turning to `NC(S)=NNC(=O)c1ccccc1`, the Kic in data set [2] is 19 µM. The molecule also came in with an inhibition in data set [1] of 22%. In data set [3], the Kiuc was found to be 30 µM.

For `C[C@H](CS)C(=O)N1CCC[C@H]1C(=O)O`, the Kiuc in data set [3] was greater than 2000 µM. In data set [1], `CNC(=S)NNC(=O)C(C)(C)C` returned an inhibition of 0%. In data set [4], `Sc1n[nH]c(-c2ccccc2)n1` yielded an inhibition of 0%.

In turn, `Cc1nnc[nH]1` gave an inhibition in data set [4] of 0%. As to `NC(=S)NNC(=O)c1ccc(C(=O)c2cccc([N+](=O)[O-])c2)cc1`, in data set [2], the Kic was found to be 16 µM. The inhibition in data set [1] worked out at 45%. Besides, the Kiuc in data set [3] turned out to be 15 µM.

For the molecule `NC(=S)NNC(=O)CCC(=O)O`, in data set [1], the inhibition amounted to 13%.
